Measurements as given in paper PMC9335283 (Frontiers in Microbiology, 2022).
≈ marks a conversion by molar mass, not a printed value. Read-outs that look alike come from different tables or passages of the source. Where a SMILES comes first, the peptide text is derived from it.

Assays:
red blood cells of mice = test: Hemolytic activity assay; assay type: cell-based
Protocol: Murine erythrocytes and peritoneal macrophages were obtained from wild-type (WT) C57BL/6 mice (Chongqing Academy of Chinese Material Medical, China). Briefly, erythrocytes were obtained by collecting blood from the tail vein. […] The hemolytic activities of AMPs and antibiotics were determined as previously described (Song et al., [2020]). In brief, whole mice blood was centrifuged at 1,500 rpm for 5 min at room temperature and then washed three times with phosphate-buffered saline (PBS) to obtain red blood cells (RBCs). Subsequently, 2% RBCs in PBS were prepared. Then, aliquots of 100 μl RBCs were mixed with 100 μl tested compounds in PBS in polypropylene 96-well microtiter plates and incubated for 1 h at 37°C. After incubation, the plate was centrifuged for 5 min at 1,500 rpm and 100 μl supernatant was transferred to a new 96-well plate to determine the absorbance at 570 nm. RBCs in PBS served as negative control while RBCs treated with 1% Triton X-100 in PBS served as a positive control. The percent of hemolysis (%) was calculated using the following formula Hemolysise (%)=(OD570nm of treated sample-OD570nm of negative control)/(OD570nm of positive control-OD570nm of negative control)×100%

PK-15 cells = test: Cytotoxicity, WST-1 assay; assay type: cell-based
Protocol: Cells were seeded at a density of 1 × 10^5 cells/well in 48-well plates and cultured overnight before being used for assays described below. For cytotoxicity assay, mice peritoneal macrophages and PK-15 cells were prepared in a 48-well plate as described above and incubated with or without tested compounds for 2 h at 37°C with CO2. After 2 h incubation, cells were washed with a cell culture medium twice and continued to culture for 22 or 46 h. After 24 and 48 h incubation, 150 μl of 10% WST-1 reagent was added according to the protocols of the manufacturer. After 20 min incubation, absorbance was measured at 450 nm with a microplate reader (Bio-Rad, Japan) and was corrected for absorbance at 630 nm. Untreated cells were set as a control. The percent of cell viability (%) was calculated using the following formula: Cell viability (%) =OD450nm of treated sample/OD450nm of control×100%

S. enteritidis [1] = test: Time-killing curve assay; details: at sub-MBC (lowest concentrations with synergy), followed to 180 min
Protocol: (§1) The bacterial suspension was prepared as described above. […] After overnight culture, colony counting was performed.

E. coli [2] = test: SEM analysis of bacterial morphology; assay type: cell-based, Escherichia coli; details: 1/16 MBC of each agent, 6 h, 37°C, 1 × 10^8 CFU/ml
Protocol: After incubation, bacterial suspension was centrifuged and washed with PBS three times. Then, bacterial pellets were fixed with 1.5 ml of 2.5% glutaraldehyde in PBS at 4°C overnight. Finally, samples were sent to the Lilai biomedicine experiment center (Sichuan, China) for SEM analysis.

S. aureus [3] = test: microbe, parasite or virus in culture; assay type: cell-based; details: Staphylococcus aureus, 18 h
Protocol: (§2) S. aureus and S. enteritidis isolates were obtained from laboratory clinical isolates, and avian pathogenic E. coli was kindly provided by Professor Qingke Kong (College of Veterinary Medicine, Southwest University). […] Bacteria were cultured at 37°C for 18 h in MHB or LB agar plates.
(§3) Briefly, bacteria were maintained in MHB medium at 37°C and grown to mid-logarithmic growth phase before being tested. […] After incubation, minimum inhibitory concentration (MIC) was determined by the observation of turbidity, and minimum bactericidal concentration (MBC) was determined by colony counting. […] After overnight culture at 37°C, survival bacteria were counted.

E. coli [4] = test: Time-killing curve assay; assay type: cell-based, Escherichia coli; details: at sub-MBC (lowest concentrations with synergy), followed to 180 min
Protocol: as §1

S. aureus [5] = test: Time-killing curve assay; assay type: cell-based, Staphylococcus aureus; details: at sub-MBC (lowest concentrations with synergy), followed to 180 min
Protocol: as §1

E. coli [6] = test: microbe, parasite or virus in culture; assay type: cell-based; details: Escherichia coli, 18 h
Protocol: as §2, §3

S. enteritidis [7] = test: microbe, parasite or virus in culture; assay type: cell-based; details: Salmonella enterica, MHB, 18 h, 37°C, triplicate; for MBC: colony counting; for MIC: turbidity
Description: S. aureus and S. enteritidis isolates were obtained from laboratory clinical isolates, and avian pathogenic E. coli was kindly provided by Professor Qingke Kong (College of Veterinary Medicine, Southwest University). Mueller–Hinton broth (MHB; Beijing Land Bridge Technology Co., Ltd., China) was used as bacterial growth media for antimicrobial activity assays, and Luria–Bertani (LB; Qingdao Hope Bio-Technology Co., Ltd., China) agar plates were used for the colony-counting assay. Bacteria were cultured at 37°C for 18 h in MHB or LB agar plates.
Antimicrobial activity of AMPs and antibiotics was performed by the broth microdilution assay as reported previously (Wiegand et al., [2008]). Briefly, bacteria were maintained in MHB medium at 37°C and grown to mid-logarithmic growth phase before being tested. Then, 50 μl of peptides (0–80 μM) and antibiotics (0–40,960 μM) with triplicate were mixed with an equal volume of bacterial suspension (2 × 10^6 CFU/ml) in 96-well plates and incubated for 18 h at 37°C. After incubation, minimum inhibitory concentration (MIC) was determined by the observation of turbidity, and minimum bactericidal concentration (MBC) was determined by colony counting. […] After overnight culture at 37°C, survival bacteria were counted.

E. coli [8] = assay type: cell-based, Escherichia coli
Protocol: Drug resistance induction of E. coli was performed as previously reported. […] Bacteria from the highest concentration of drug combination were regrown, and MIC of erythromycin was measured, and then bacteria were treated again with the drug combination. The change in MIC was described by normalizing the MIC of the n generation to the MIC of first generation.

E. coli [9] = test: Motility assay on semisolid agar; assay type: cell-based, Escherichia coli; details: alone at 1/4 MIC, 18 h

Row | Compound | hemolysis (red blood cells of mice; red cells of mouse, 1 h) [%] | MBC (S. aureus [3]) [µM] | MIC (S. aureus [3]) [µM] | MBC (E. coli [6]) [µM] | MIC (E. coli [6]) [µM] | MBC (S. enteritidis [7]) [µM] | MIC (S. enteritidis [7]) [µM] | further results
1 | CC[C@H](C)[C@H](NC(=O)[C@H](CCCCN)NC(=O)[C@H](CCCCN)NC(=O)[C@H](CC(C)C)NC(=O)[C@H](CCCNC(=N)N)NC(=O)[C@H](CCCCN)NC(=O)[C@H](CCCNC(=N)N)NC(=O)[C@@H](NC(=O)[C@H](CCCCN)NC(=O)[C@H](CCCCN)NC(=O)[C@H](CCCNC(=N)N)NC(=O)[C@H](CC(C)C)NC(=O)[C@H](CCCNC(=N)N)NC(=O)[C@H](CCCNC(=N)N)NC(=O)[C@H](Cc1ccccc1)NC(=O)[C@H](CCCNC(=N)N)NC(=O)CN)[C@@H](C)O)C(=O)NCC(=O)N[C@@H](CCCCN)C(=O)N[C@H](C(=O)N[C@@H](CC(C)C)C(=O)N[C@@H](CCCCN)C(=O)N[C@@H](Cc1c[nH]c2ccccc12)C(=O)N[C@H](C(=O)N1CCC[C@H]1C(=O)N1CCC[C@H]1C(=O)N[C@H](C(=O)N[C@H](C(=O)NCC(=O)N[C@@H](CO)C(=O)N[C@H](C(=O)N1CCC[C@H]1C(=O)N[C@@H](CC(C)C)C(=O)NCC(=O)N[C@@H](CS)C(=O)NCC(=O)O)[C@@H](C)CC)C(C)C)[C@@H](C)CC)[C@@H](C)CC)C(C)C [PMAP-36] (H-GRFRRLRKKTRKRLKKIGKVLKWIPPIVGSIPLGCG-OH) | < 20 | – | – | – | – | – | – | cell viability (PK-15 cells; 2 h): < 30%
2 | CC[C@H](C)[C@H](NC(=O)CNC(=O)[C@H](C)NC(=O)[C@H](C)NC(=O)[C@@H](NC(=O)[C@@H](NC(=O)[C@H](CC(N)=O)NC(=O)[C@@H](NC(=O)[C@H](C)NC(=O)[C@@H](NC(=O)[C@@H]1CCCN1C(=O)[C@@H](NC(=O)[C@H](CC(C)C)NC(=O)[C@@H]1CCCN1C(=O)[C@H](Cc1c[nH]c2ccccc12)NC(=O)[C@H](Cc1ccccc1)NC(=O)[C@H](CCCNC(=N)N)NC(=O)[C@H](CCCCN)NC(=O)[C@@H](NC(=O)[C@@H](N)CCCNC(=N)N)C(C)C)C(C)C)C(C)C)[C@@H](C)CC)[C@@H](C)O)C(C)C)C(=O)N[C@@H](CC(N)=O)C(=O)N[C@@H](CC(C)C)C(=O)N[C@@H](Cc1ccc(O)cc1)C(=O)N[C@@H](CCCCN)C(=O)N[C@@H](C)C(=O)N[C@H](C(=O)N[C@@H](CCCNC(=N)N)C(=O)N[C@@H](CCCNC(=N)N)C(=O)N[C@@H](CCCCN)C(=O)O)[C@@H](C)CC [CATH-3] (H-RVKRFWPLVPVAINTVAAGINLYKAIRRK-OH) | < 20 | – | – | – | – | – | – | toxicity to PK-15 cells (PK-15 cells): did not show toxicity
3 | CC[C@H]1OC(=O)[C@H](C)[C@@H](O[C@H]2C[C@@](C)(OC)[C@@H](O)[C@H](C)O2)[C@H](C)[C@@H](O[C@@H]2O[C@H](C)C[C@H](N(C)C)[C@H]2O)[C@](C)(O)C[C@@H](C)C(=O)[C@H](C)[C@@H](O)[C@]1(C)O [Erythromycin, erythromycin] | – | > 5120 | 5120 (≈ 3760 µg/mL) | > 5120 | 40 (≈ 29.4 µg/mL) | > 5120 | 80 (≈ 58.7 µg/mL) | time to kill all bacteria (S. enteritidis [1]): > 180 min; E. coli cellular morphology by SEM (E. coli [2]): induced the formation of micelles; time to kill all bacteria (E. coli [4]): > 180 min; hemolysis (red blood cells of mice): > 95%; time to kill all bacteria (S. aureus [5]): > 180 min; cell viability (PK-15 cells): < 30%; MIC of erythromycin increase (E. coli [8]): 16 fold; MIC increase (E. coli [8]; […], 14th generation, relative to first generation): 2 fold; effect on bacterial migration distance (E. coli [9]): did not affect bacterial migration distance
4 | CC1(C)S[C@@H]2[C@H](NC(=O)[C@H](N)c3ccccc3)C(=O)N2[C@H]1C(=O)O [Ampicillin, ampicillin] | – | 640 (≈ 224 µg/mL) | 80 (≈ 28 µg/mL) | 160 (≈ 55.9 µg/mL) | 160 (≈ 55.9 µg/mL) | > 5120 | 5120 (≈ 1790 µg/mL) | –
5 | CN(C)[C@@H]1C(O)=C(C(N)=O)C(=O)[C@@]2(O)C(O)=C3C(=O)c4c(O)cccc4[C@@](C)(O)[C@H]3C[C@@H]12 [Tetracycline, tetracycline] | – | 40 (≈ 17.8 µg/mL) | – | 10 (≈ 4.44 µg/mL) | – | 640 (≈ 284 µg/mL) | 40 (≈ 17.8 µg/mL) | –
6 | CNC(C)C1CCC(N)C(OC2C(N)CC(N)C(OC3OCC(C)(O)C(NC)C3O)C2O)O1 (centres unmarked) [Gentamicin, gentamicin] | – | 40 (≈ 19.1 µg/mL) | 20 (≈ 9.55 µg/mL) | 2.5 (≈ 1.19 µg/mL) | 1.25 (≈ 0.597 µg/mL) | 5 (≈ 2.39 µg/mL) | 2.5 (≈ 1.19 µg/mL) | –
